One experiment deals with T1, PDGFRβ (Homo sapiens, UniProt P09619).
T1 construct: endogenous in cells; host or cells: MG63 osteosarcoma cells (ATCC)
The experiment can be described thus: In vitro phospho-Tyr751 PDGFRβ ELISA assay in MG63 osteosarcoma cells (Test b). In kind it is cell-based. The note with it: MG63 cells stimulated with PDGFBB, read-out: IC50 versus phospho-Tyr751 formation in PDGFRβ. The procedure: This assay uses a conventional ELISA method to determine the ability of test compounds to inhibit phosphorylation of tyrosine in PDGFRβ.
An MG63 osteosarcoma cell line [American Type Culture Collection (ATCC) CCL 1427] was routinely maintained at 37° C. with 7.5% CO2 in Dulbecco's modified Eagle's growth medium (DMEM; Sigma-Aldrich; Catalogue No. D6546) containing 10% foetal calf serum (FCS; Sigma-Aldrich; Catalogue No. F7524) and 2 mM L-glutamine (Invitrogen Ltd., Paisley, UK; Catalogue No. 25030-024).
For the assay, the cells were detached from the culture flask using a trypsin/ethylenediaminetetraacetic acid (EDTA) mixture (Invitrogen Ltd.; Catalogue No. 15400-054) and resuspended in a test medium comprising DMEM without phenol red (Sigma-Aldrich; Catalogue No. D5921) containing 1% charcoal-stripped foetal calf serum (FCS) (Sigma-Aldrich; Catalogue No. F7524, stripped by incubation with dextran-coated activated charcoal at 55° C. for 30 minutes with continuous stirring followed by removal of the charcoal by centrifugation and filter sterilisation) and 2 mM L-glutamine (Invitrogen Ltd., Catalogue No. 25030-024) to give 6×10^4 cells per ml. […]
Background: In an ELISA, binding on a coated surface is turned into a signal by an enzyme label.

Another experiment deals with T2, KDR (VEGFR2) (Homo sapiens, UniProt P35968).
T2 construct: phosphorylation of KDR expressed in human umbilical vein endothelial cells (HUVECs); host or cells: HUVECs (primary human umbilical vein endothelial cells)
Put plainly: In vitro phospho-KDR ELISA assay in HUVECs (Test c). In kind it is cell-based. Conditions: HUVECs stimulated with VEGF, read-out: IC50 versus phospho-tyrosine formation in KDR. How it is done:
This assay uses a conventional ELISA method to determine the ability of test compounds to inhibit phosphorylation of tyrosine in KDR (VEGFR2).
Human umbilical vein endothelial cells (HUVECs; PromoCell) were routinely incubated at 37° C. with 7.5% CO2 in ‘growth medium’ comprising MCDB 131 (Gibco Catalogue No. 10372-019; 500 ml) containing L-glutamine (Sigma Catalogue No. G3126; 0.848 g), 1% Penicillin Streptomycin (Gibco Catalogue No. 15140-122) and Fetal Bovine Serum (PAA Laboratories Catalogue No. A15-043; 50 ml).
For the assay, the cells were detached from the culture flask using a trypsin/ethylenediaminetetraacetic acid (EDTA) mixture (Invitrogen Ltd.; Catalogue No. 15400-054) and resuspended in ‘test medium’ comprising MCDB 131 (500 ml) containing L-glutamine (0.848 g), 1% Penicillin Streptomycin and Fetal Bovine Serum (10 ml). Aliquots (1 ml) were seeded into each well of a 24 well tissue culture plate (Corning Life Sciences; Catalogue No. 3527) to give a density of approximately 3.5×10^4 cells per well. The cells were incubated overnight at 37° C. with 7.5% CO2 to allow adherence to the well surface. The following morning the assay medium was decanted and an aliquot (0.5 ml) of ‘serum free medium’ comprising MCDB 131 (500 ml) containing L-glutamine (0.848 g) and 1% Penicillin Streptomycin was added to each well. The plates were incubated at 37° C. for 2.5 hours. […]

Each structure is given as a SMILES string.

T1 sequence (P09619 33-1106): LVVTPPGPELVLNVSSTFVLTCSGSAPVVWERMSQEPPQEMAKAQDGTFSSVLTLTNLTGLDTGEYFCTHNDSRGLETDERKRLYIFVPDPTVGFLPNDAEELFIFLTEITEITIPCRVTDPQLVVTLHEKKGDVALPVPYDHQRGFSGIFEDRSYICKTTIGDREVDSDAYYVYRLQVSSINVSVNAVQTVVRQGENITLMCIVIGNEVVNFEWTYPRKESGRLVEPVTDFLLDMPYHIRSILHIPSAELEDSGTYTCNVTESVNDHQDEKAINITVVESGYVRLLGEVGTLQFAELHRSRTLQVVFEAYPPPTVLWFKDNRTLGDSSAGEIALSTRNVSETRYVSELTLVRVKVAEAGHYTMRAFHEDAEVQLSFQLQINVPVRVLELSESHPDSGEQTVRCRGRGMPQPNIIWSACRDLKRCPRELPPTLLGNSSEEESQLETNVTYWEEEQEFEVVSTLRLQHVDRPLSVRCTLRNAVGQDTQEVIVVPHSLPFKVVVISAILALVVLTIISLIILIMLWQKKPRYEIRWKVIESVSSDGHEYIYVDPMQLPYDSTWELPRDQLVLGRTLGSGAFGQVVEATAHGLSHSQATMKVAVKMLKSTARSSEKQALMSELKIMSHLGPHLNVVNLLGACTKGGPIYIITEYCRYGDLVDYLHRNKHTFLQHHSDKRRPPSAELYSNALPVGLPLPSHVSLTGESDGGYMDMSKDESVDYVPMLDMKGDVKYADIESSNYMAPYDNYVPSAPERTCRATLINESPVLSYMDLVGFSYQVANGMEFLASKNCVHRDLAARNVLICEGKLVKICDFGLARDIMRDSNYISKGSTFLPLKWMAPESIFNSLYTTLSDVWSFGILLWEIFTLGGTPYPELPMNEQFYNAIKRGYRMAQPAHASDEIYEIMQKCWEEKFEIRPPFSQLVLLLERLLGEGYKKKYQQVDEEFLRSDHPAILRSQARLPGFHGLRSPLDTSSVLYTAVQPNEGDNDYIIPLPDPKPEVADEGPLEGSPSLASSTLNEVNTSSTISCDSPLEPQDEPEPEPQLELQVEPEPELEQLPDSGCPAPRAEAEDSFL
T2 sequence (P35968 20-1356): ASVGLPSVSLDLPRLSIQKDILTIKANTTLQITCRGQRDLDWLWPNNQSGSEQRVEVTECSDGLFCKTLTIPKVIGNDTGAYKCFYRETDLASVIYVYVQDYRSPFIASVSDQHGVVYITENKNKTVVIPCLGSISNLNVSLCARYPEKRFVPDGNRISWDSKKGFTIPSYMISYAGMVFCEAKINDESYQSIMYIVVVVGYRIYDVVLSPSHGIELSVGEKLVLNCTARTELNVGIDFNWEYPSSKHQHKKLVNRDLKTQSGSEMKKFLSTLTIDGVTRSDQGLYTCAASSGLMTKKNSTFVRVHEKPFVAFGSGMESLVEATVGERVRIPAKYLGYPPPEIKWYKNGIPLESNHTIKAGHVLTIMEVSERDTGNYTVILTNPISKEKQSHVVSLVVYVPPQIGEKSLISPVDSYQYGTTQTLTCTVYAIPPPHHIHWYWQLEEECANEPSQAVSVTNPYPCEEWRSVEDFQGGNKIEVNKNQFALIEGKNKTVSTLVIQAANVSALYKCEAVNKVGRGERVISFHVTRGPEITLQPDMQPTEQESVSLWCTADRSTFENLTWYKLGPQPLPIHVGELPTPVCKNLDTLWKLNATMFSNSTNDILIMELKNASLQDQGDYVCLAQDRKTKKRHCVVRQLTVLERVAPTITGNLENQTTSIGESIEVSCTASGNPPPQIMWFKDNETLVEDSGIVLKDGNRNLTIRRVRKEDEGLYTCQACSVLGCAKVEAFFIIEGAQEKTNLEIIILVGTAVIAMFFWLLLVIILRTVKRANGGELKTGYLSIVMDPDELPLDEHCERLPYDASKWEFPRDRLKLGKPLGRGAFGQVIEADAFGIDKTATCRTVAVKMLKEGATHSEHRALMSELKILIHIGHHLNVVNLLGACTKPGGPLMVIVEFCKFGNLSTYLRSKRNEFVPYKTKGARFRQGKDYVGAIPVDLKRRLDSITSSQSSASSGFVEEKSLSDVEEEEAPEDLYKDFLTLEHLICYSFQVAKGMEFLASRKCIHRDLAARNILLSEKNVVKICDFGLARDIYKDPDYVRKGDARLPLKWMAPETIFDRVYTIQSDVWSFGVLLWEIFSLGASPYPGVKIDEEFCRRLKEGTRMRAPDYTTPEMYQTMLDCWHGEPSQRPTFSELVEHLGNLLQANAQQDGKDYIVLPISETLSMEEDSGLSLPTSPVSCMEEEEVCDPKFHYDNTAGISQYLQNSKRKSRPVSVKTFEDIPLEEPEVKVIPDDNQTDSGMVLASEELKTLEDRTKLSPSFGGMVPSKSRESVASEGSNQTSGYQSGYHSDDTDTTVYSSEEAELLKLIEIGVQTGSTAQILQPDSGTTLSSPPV

On to `CCn1cc(NC(=O)Cc2ncc(Oc3ccnc4cc(OC)c(OC)cc34)cn2)cn1` [Example 1, N-(1-ethylpyrazol-4-yl)-2-[5-(6,7-dimethoxyquinolin-4-yloxy)pyrimidin-2-yl]acetamide], for which the concentration for half-maximal inhibition (IC50) (in general, the concentration that gives 50% inhibition) on PDGFRβ is about 7 nM; at KDR (VEGFR2), about 1000 nM.

On to `CCc1cc(NC(=O)Cc2ncc(Oc3ccnc4cc(OC)c(OC)cc34)cn2)n[nH]1` [N-(5-ethyl-1H-pyrazol-3-yl)-2-[5-(6,7-dimethoxyquinolin-4-yloxy)pyrimidin-2-yl]acetamide], for which the IC50 is about 6 nM on PDGFRβ and about 700 nM at KDR (VEGFR2).

These data come from US20090042910A1, “QUINOLINE DERIVATIVES FOR TREATING CANCER” (priority 2006, published 2009).
